Reference: patent publication US20020064883A1, “Measurement and quantification of 17 ketosteroid-sulfates as a biomarker of biological age” (priority 2000, published 2002)

Tested on: Anabolic/Catabolic Index (ACI)
Experiment: Human clinical trial: effect of treatment on urinary Anabolic/Catabolic Index (ACI)
Assay type: in vivo
Description: The concentration of 17-KS-S in the sample was calculated from the ratio of the peak area of the compound of interest to that of the external standard multiplied by its concentration. The concentration of creatinine in urine was measured by a colorimetric method. The urinary Anabolic/Catabolic Index (ACI=X/Y) was calculated as a ratio of total 17-ketosteroid sulfate concentration (X, ng/μL) to creatinine concentration (Y, μg/μL).
There were two objectives in this example. The first was to investigate the ACI-age relationship using baseline information of ACI and the second was to investigate effects of four treatment groups on ACI.
There were 71 individuals for treatment allocation. They were identified with a number of 1 through 72 (69 was not used). Of these 71 individuals, five (subject identification numbers=3, 22, 24, 26 and 65) were not included in the data set of ACI measurements. Consequently, there were 66 individuals represented in the ACI information. Among the 66 individuals, three (subject ID=1, 9 and 60) had only baseline measurements. These three individuals contributed to the analysis of age/ACI relationship only. Therefore, the data set for looking at treatment effects consisted of 63 individuals. Not all of the 63 individuals have six serial observations.
A 24-hour urine specimen was collected from each individual before treatment. The urine specimens were quickly aliquoted, frozen, and immediately shipped on dry ice by overnight service for analysis. A ratio of total 17-ketosteroid sulfate concentration (ng/μL) to creatinine concentration (mg/mL) was calculated and expressed as ACI. Subsequent to treatment urine specimens were collected and analyzed at 24 hours. […] The fitted line has a negative slope (estimate of the slope is −0.061239 and is statistically significant from zero with p-value being equal to 0.0034.). Pearson correlation is estimated to be −0.35510 (p=0.0034). These findings indicate that ACI level decreases with ages between 40 and 65.
This part of the analysis was performed to determine if any of three different treatments affect the ACI level. That is to check whether the ACI level changes under and after termination of treatment. There were four treatment groups, referred to as groups 1-4. The individuals in Group 1 were given a placebo. The individuals in Group 2 were treated with 7-keto DHEA (25 mg/day dosage). The individuals in Group 3 were treated with Longevity Signal Formula (LSV) (2.008 mg/day dosage). The individuals in Group 4 were treated with Longevity Signal Formula (LSV) and Renewal Herbal Formula (Renewal).
FIG. 5 illustrates the plots of the individual profile for each treatment group for weeks 1-5. Each individual's serial observations are connected with a line to emphasize the trend over time. Measurements at week zero represent ACI prior treatment. Measurements at weeks 1-4 represent the ACI level after receiving treatments for 1-4 weeks respectively. Measurements at week 5 represent the ACI level three days after termination of treatment. FIG. 6 plots the mean responses at each point in time plus two standard errors.

C[C@]12CC[C@H](O)CC1=CC(=O)[C@@H]1[C@@H]2CC[C@]2(C)C(=O)CC[C@@H]12 [7-keto DHEA]
Effect of treatment on ACI level (in words) (under treatment, weeks 1-4 vs baseline): does not change the ACI level at all
Mean of difference in ACI (week 1 − week 0 (week 0 = baseline; paired t-test)): −0.04
Mean of difference in ACI (week 2 − week 0): 0.20
Mean of difference in ACI (week 2 − week 1): 0.23
Mean of difference in ACI (week 3 − week 0): −0.12
Mean of difference in ACI (week 3 − week 1): −0.08
Mean of difference in ACI (week 3 − week 2): −0.31
Mean of difference in ACI (week 4 − week 0): −0.12
Mean of difference in ACI (week 4 − week 1): −0.09
Mean of difference in ACI (week 4 − week 2): −0.32
Mean of difference in ACI (week 4 − week 3): −0.01
Mean of difference in ACI (week 5 − week 0 (week 5 = three days after termination of treatment)): −0.10
Mean of difference in ACI (week 5 − week 1): −0.07
Mean of difference in ACI (week 5 − week 2): −0.30
Mean of difference in ACI (week 5 − week 3): 0.01
Mean of difference in ACI (week 5 − week 4): 0.02
